Test [1] deals with Staphylococcus aureus. Description: Antibacterial activity against trimethoprim sensitive Staphylococcus aureus assessed as inhibition of bacterial growth. The format is functional.
Test [2] has as its system Enterococcus faecium. Put plainly: Antibacterial activity against trimethoprim sensitive Enterococcus faecium assessed as inhibition of bacterial growth. The format is functional.
Test [3] relates to Enterococcus faecium. Description: Antibacterial activity against trimethoprim resistant Enterococcus faecium assessed as inhibition of bacterial growth. The format is functional.
Test [4] has as its system Acinetobacter baumannii. Put plainly: Antibacterial activity against trimethoprim sensitive Acinetobacter baumannii assessed as inhibition of bacterial growth. Format: functional.
In test [5] the test system is Staphylococcus aureus. Description: Antibacterial activity against trimethoprim resistant Staphylococcus aureus assessed as inhibition of bacterial growth. Format: functional.
In test [6] the test system is Acinetobacter baumannii. Description: Antibacterial activity against trimethoprim resistant Acinetobacter baumannii assessed as inhibition of bacterial growth. Format: functional.
Test [7] has as its system Staphylococcus aureus. Description: Antibacterial activity against Staphylococcus aureus. Format: functional, organism-based.
Test [8] concerns Enterococcus faecium. Description: Antibacterial activity against Enterococcus faecium. The format is functional, organism-based.

≈ marks a conversion by molar mass, not a printed value. Calls of active or inactive are those of the source. No cut-off for these calls is given here.

MIC and Activity data for 6 molecules are collected here from ChEMBL document CHEMBL5236604, “Cage hydrocarbons as linkers in dimeric drug design: Case studies with trimethoprim and tedizolid” (2023).

By MIC is commonly meant the lowest concentration that inhibits growth of the organism.

Take `COc1cc(Cc2cnc(N)nc2N)cc(OC)c1OC(=O)C12CCC(C(=O)Oc3c(OC)cc(Cc4cnc(N)nc4N)cc3OC)(CC1)CC2`: the MIC was greater than 100 µM with Staphylococcus aureus [1], 3.12 µM (≈ 2.23 µg/mL) with Enterococcus faecium [2], greater than 100 µM in the test on Enterococcus faecium [3] and greater than 100 µM in the test on Acinetobacter baumannii [4].
With `COc1cc(Cc2cnc(N)nc2N)cc(OC)c1O` [4-HYDROXYTRIMETHOPRIM], the MIC in the test with Staphylococcus aureus [1] is 12.5 µM (≈ 3.45 µg/mL); with Staphylococcus aureus [5] it was greater than 25 µM; in the test with Enterococcus faecium [2], 3.12 µM (≈ 0.863 µg/mL); in the test on Enterococcus faecium [3], 60 µM (≈ 16.6 µg/mL); in the test on Acinetobacter baumannii [4], greater than 100 µM.
Regarding `COc1cc(Cc2cnc(N)nc2N)cc(OC)c1OC(=O)C12CC(C(=O)Oc3c(OC)cc(Cc4cnc(N)nc4N)cc3OC)(C1)C2`, the MIC in the test on Staphylococcus aureus [1] is 25 µM (≈ 16.8 µg/mL); in the test on Staphylococcus aureus [5] it was greater than 100 µM; with Enterococcus faecium [2] it was 1.56 µM (≈ 1.05 µg/mL); in the test on Enterococcus faecium [3], greater than 50 µM; with Acinetobacter baumannii [4], greater than 100 µM.
For the molecule `COc1cc(Cc2cnc(N)nc2N)cc(OC)c1OC(=O)C12CC3CC(C1)CC(C(=O)Oc1c(OC)cc(Cc4cnc(N)nc4N)cc1OC)(C3)C2`, the MIC in the test with Staphylococcus aureus [1] was 12.5 µM (≈ 9.26 µg/mL); with Staphylococcus aureus [5] it was greater than 25 µM; in the test with Enterococcus faecium [2], 6.25 µM (≈ 4.63 µg/mL); in the test with Enterococcus faecium [3], 50 µM (≈ 37 µg/mL); with Acinetobacter baumannii [4], greater than 100 µM.
Take `COc1cc(Cc2cnc(N)nc2N)cc(OC)c1OC` [TRIMETHOPRIM]: the MIC in the test on Staphylococcus aureus [1] is 6.25 µM (≈ 1.81 µg/mL); in the test with Staphylococcus aureus [5] it was 12.5 µM (≈ 3.63 µg/mL); in the test on Enterococcus faecium [2], 0.78 µM (≈ 0.226 µg/mL); with Enterococcus faecium [3] it was 100 µM (≈ 29 µg/mL); in the test with Acinetobacter baumannii [4], 6.25 µM (≈ 1.81 µg/mL); in the test on Acinetobacter baumannii [6], greater than 400 µM.
Turning to `CC(C)(C)[Si](C)(C)OC[C@H]1CN(c2ccc(O)c(F)c2)C(=O)O1`, the outcome with Staphylococcus aureus [7] and with Enterococcus faecium [8] was inactive.
